One experiment deals with T1, A2A receptors in the rat (Rattus norvegicus, UniProt P30543).
T1 construct: made in house; host or cells: CHO cells, Semliki Forest virus expression system
The experiment in a line: Radioligand binding assay, rat A2A receptor. The following applies: read-out: pKi, rat A2A receptor (converted).

The next experiment concerns male Sprague Dawley rats. The experiment in a line: Elevated plus-maze test. The class given is in vivo, rat. As for the experimental part:
Animals are placed in the center of an elevated maze containing two closed and two open arms. The time spent in the open arms of the maze, together with the number of times the animals enter the open arms of the maze, are taken as indices of the level of neophobic anxiety of these animals.
Levels of anxiety were determined by the time spent and the distance traveled in the open arms of the maze. Data are mean±SEM based on 12 animals per group. […] FIG. 5: SEM: standard error of the mean. Results are based on 11 animals. […] Data analyzed with a paired t-test.
Adult male Sprague Dawley rats weighing approximately 200 g at the start of the experiment were used. They were housed in groups of four in Macrolon Type 3 cages (810 cm^2) with sawdust bedding. The animals were maintained on a 12:12 h light-dark cycle with light onset at 6 am., with free access to tap water and food (Promikliba Kaiseraugst, Switzerland). Room temperature (21-23° C.) and humidity (55-65%) were kept constant.
The elevated plus-maze consisted of two open arms perpendicular to two closed arms (each arm was 10 cm wide×50 cm long) extending from a small open central area. The apparatus was constructed from grey polyvinylchloride plastic and placed 50 cm above the floor. […] The apparatus was situated in a sound-attenuated observation room with controlled illumination (200 lux on the central platform of the plus-maze). Rats were tested in a randomized order. The test started by placing the animal on the central platform facing a closed arm. The duration of the test was 5 minutes. 70% ethanol was used to clean the apparatus prior to the introduction of each animal.
The plus-maze was positioned in the middle of a closed black environment with the animal observed via a closed circuit video camera mounted above the maze. Behavioral analysis was conducted using a computerized system (Ethovision, Noldus Information Technology, The Netherlands).
Each treatment group consisted of 9 to 12 rats. Each animal was used only for a single experiment. […] After drug administration, rats were isolated in small cages without sawdust and water. After one hour, they were placed in the plus-maze.
The measures selected to represent anxiolytic-like behavior was the time spent (sec) within the open arms, the distance traveled (cm) within the open arms, and the number of transitions between the central platform and the open arms. The measure used to quantify motor activity was the distance traveled per second (speed) within the closed arms.
The compounds were administered p.o. (gavage) in a volume of 5 ml/kg body weight. Control animals received equal volume injections of vehicle.
A p-value lower than 0.05 was considered significant. The effects of chlordiazepoxide were analysed using a t-test.

Setting [1] is: 3, 10 and 30 mg/kg po, vs vehicle.

Each structure is given as a SMILES string. Entries after “also recorded” stand apart in the source; their conditions may differ.

T1 sequence (P30543 whole entry): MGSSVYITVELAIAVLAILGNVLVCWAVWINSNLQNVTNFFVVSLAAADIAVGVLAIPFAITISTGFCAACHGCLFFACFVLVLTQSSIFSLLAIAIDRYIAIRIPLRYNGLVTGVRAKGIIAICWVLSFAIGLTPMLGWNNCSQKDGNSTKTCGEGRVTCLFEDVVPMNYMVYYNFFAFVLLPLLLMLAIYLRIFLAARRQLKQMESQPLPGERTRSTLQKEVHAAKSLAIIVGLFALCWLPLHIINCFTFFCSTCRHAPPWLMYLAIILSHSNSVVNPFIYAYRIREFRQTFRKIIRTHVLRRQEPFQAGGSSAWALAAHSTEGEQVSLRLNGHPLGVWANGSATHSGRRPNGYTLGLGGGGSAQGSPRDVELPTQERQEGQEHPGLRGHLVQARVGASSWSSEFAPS

For `COc1ccc(N2CCOCC2)c2sc(NC(=O)N3CCC(C)(O)CC3)nc12` [4-hydroxy-4-methyl-piperidine-1-carboxylic acid (4-methoxy-7-morpholin-4-yl-benzothiazol-2-yl)-amide], the Ki at A2A receptors in the rat is 20 nM. In addition, in the experiment with male Sprague Dawley rats (setting [1]), the “distance traveled in open arms” value is “dose-dependent increase; also recorded: significantly and dose-dependently increased”; the “entries into the open arms” value is “dose-dependent increase; also recorded: significantly and dose-dependently increased”; the “speed in the closed arms” value is “increased speed in the closed arms reaching statistical significance at 10 and 30 mg/kg”; the “time spent in the open arms” value is “significant dose-dependent increase; also recorded: significantly and dose-dependently increased”. Besides, in the experiment with male Sprague Dawley rats (po), the “dose of maximal effect, all parameters measured” value is on record as 30 mg/kg; the “lowest dose that reached statistical significance, distance traveled in the open arms” value turned out to be 30 mg/kg; the “lowest dose that reached statistical significance, open arm entries” value amounted to 10 mg/kg; the “lowest dose that reached statistical significance, time spent in the open arms” value was 30 mg/kg.

These data come from US20090082341A1 (SYNOSIA THERAPEUTICS, priority 2007, published 2009).
